Data taken from publication PMC7321404, “Isolation of Isocoumarins and Flavonoids as α-Glucosidase Inhibitors from Agrimonia pilosa L” (Molecules, 2020).
Where two headings read alike, the source gives them in different places.

Experiments:
α-glucosidase [1] = molecular target: T1, α-glucosidase (Saccharomyces cerevisiae, UniProt P53341); experiment: AGI kinetic analysis (Lineweaver–Burk plots); type: biochemical
Description: Four isocoumarins 1–4 and four flavonoids 5–8 were identified from the APE fraction, and AGI kinetic analyses were performed. During the reaction, α-glucosidase (0.76 unit/mL in 100-mmol phosphate buffer [pH 6.9]) activity was inhibited by the compounds (I) in the presence of the substrate (4-mmol p-nitrophenyl-α-D-glucopyranoside in 100-mmol phosphate buffer [pH 6.9]). The inhibition modes (competitive, uncompetitive, non-competitive, or mixed) of isocoumarins 1–4 and flavonoids 5–8 were examined using nonlinear regression Michaelis–Menten enzyme kinetics. The Lineweaver–Burk plot methods were used to determine kinetic parameters at increasing substrate and compound concentrations, and the parameters were calculated using a nonlinear regression program (Sigma Plot; SPCC Inc., Chicago, IL, USA). The obtained results represent three independent experiments.

α-glucosidase [2] = molecular target: T1, α-glucosidase; settings: has been reported; cited from earlier work

T1 sequence (P53341 whole entry): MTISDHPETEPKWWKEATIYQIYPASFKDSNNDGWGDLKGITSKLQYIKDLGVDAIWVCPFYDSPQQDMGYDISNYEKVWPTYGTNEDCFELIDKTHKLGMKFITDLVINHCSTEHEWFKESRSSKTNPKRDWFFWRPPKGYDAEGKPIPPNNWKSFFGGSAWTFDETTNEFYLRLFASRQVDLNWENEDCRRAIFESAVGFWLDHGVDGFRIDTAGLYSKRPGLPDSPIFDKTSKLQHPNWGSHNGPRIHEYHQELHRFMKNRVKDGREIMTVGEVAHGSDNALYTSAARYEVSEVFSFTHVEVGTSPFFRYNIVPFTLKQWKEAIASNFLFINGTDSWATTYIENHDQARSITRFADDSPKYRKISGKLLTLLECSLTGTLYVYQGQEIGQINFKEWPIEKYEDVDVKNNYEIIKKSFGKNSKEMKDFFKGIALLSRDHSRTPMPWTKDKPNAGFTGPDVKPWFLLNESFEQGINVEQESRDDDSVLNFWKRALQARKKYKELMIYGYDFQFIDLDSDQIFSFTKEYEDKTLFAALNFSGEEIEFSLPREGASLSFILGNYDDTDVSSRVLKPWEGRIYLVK

COc1ccc(CCC2Cc3cc(O)cc(O)c3C(=O)O2)cc1 (stereo not drawn) [Compound 1, agrimonolide]
Inhibition Mode (α-glucosidase [1]): Non-competitive

O=C1OC(CCc2ccc(O)cc2)Cc2cc(O)cc(O)c21 (stereo not drawn) [Compound 3, desmethylagrimonolide]
Inhibition Mode (α-glucosidase [1]): Non-competitive

O=c1c(O)c(-c2ccc(O)c(O)c2)oc2cc(O)cc(O)c12 [Compound 6, quercetin]
Inhibition Mode (α-glucosidase [2]): competitive
